# From US20150105252A1, “SUBSTITUTED PYRAZOLES AS HERBICIDES” (E I DU PONT DE NEMOURS AND COMPANY, priority 2013, published 2015)
# Assays:
# [1] = test system: pigweed; experiment: Test A postemergence; format: in vivo, Amaranthus retroflexus
# Outline: (§1)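 Injury readout: eye-scored versus untreated controls, 0 to 100. Exposure period: ~10 days, greenhouse. Application: soil-directed spray over sown seed (pre) or spray on seedlings 2–10 cm tall with one or two leaves (post), compound carried in non-phytotoxic solvent including surfactant.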
# [2] = test system: velvetleaf; experiment: Test A preemergence; format: in vivo, Abutilon theophrasti; conditions: for Velvetleaf plant response rating (0 to 100 scale): visual injury approx. 10 days after treatment
# Outline: as §1
# [3] = test system: morningglory; experiment: Test A preemergence; format: in vivo, Ipomoea spp.; conditions: for Morningglory plant response rating (0 to 100 scale): visual injury approx. 10 days after treatment
# Outline: as §1
# [4] = test system: corn; experiment: Test A preemergence; format: in vivo, Zea mays; conditions: for Corn plant response rating (0 to 100 scale): visual injury approx. 10 days after treatment
# Outline: as §1
# [5] = test system: barnyardgrass; experiment: Test A preemergence; format: in vivo, Echinochloa crus-galli
# Outline: as §1
# [6] = test system: pigweed; experiment: Test A preemergence; format: in vivo, Amaranthus retroflexus; conditions: for Pigweed plant response rating (0 to 100 scale): visual injury approx. 10 days after treatment
# Outline: as §1
# [7] = test system: foxtail, giant; experiment: Test A postemergence; format: in vivo, Setaria faberii
# Outline: as §1
# [8] = test system: wheat; experiment: Test A preemergence; format: in vivo, Triticum aestivum; conditions: preemergence; for Wheat plant response rating (0 to 100 scale): visual injury approx. 10 days after treatment
# Outline: as §1
# [9] = test system: crabgrass, large; experiment: Test A postemergence; format: in vivo, Digitaria sanguinalis
# Outline: as §1
# [10] = test system: foxtail, giant; experiment: Test A preemergence; format: in vivo, Setaria faberii; conditions: for Foxtail, Giant plant response rating (0 to 100 scale): visual injury approx. 10 days after treatment
# Outline: as §1
# [11] = test system: wheat; experiment: Test A postemergence; format: in vivo, Triticum aestivum
# Outline: as §1
# [12] = test system: barnyardgrass; experiment: Test A postemergence; format: in vivo, Echinochloa crus-galli
# Outline: as §1
# [13] = test system: sedge, umbrella; experiment: Test B flood; format: in vivo, Cyperus difformis; conditions: 250 g ai/ha, visual rating on 0 to 100 scale (0 no effect, 100 complete control), 13 to 15 days
# Outline: (§2)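 Flooded-pot test: compound dosed into 3 cm of standing water above soil when plants had two leaves. Visual control ratings (0–100) versus untreated plants after 13–15 d.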
# [14] = test system: corn; experiment: Test A postemergence; format: in vivo, Zea mays
# Outline: as §1
# [15] = test system: velvetleaf; experiment: Test A postemergence; format: in vivo, Abutilon theophrasti
# Outline: as §1
# [16] = test system: crabgrass, large; experiment: Test A preemergence; format: in vivo, Digitaria sanguinalis; conditions: for Crabgrass, Large plant response rating (0 to 100 scale): visual injury approx. 10 days after treatment
# Outline: as §1
# [17] = test system: rice; experiment: Test B flood; format: in vivo, Oryza sativa; conditions: 250 g ai/ha, visual rating on 0 to 100 scale (0 no effect, 100 complete control), 13 to 15 days
# Outline: as §2
# [18] = test system: ducksalad; experiment: Test B flood; format: in vivo, Heteranthera limosa; conditions: 250 g ai/ha, visual rating on 0 to 100 scale (0 no effect, 100 complete control), 13 to 15 days
# Outline: as §2
# [19] = test system: morningglory; experiment: Test A postemergence; format: in vivo, Ipomoea spp.
# Outline: as §1
# [20] = test system: barnyardgrass; experiment: Test B flood; format: in vivo, Echinochloa crus-galli; conditions: 250 g ai/ha, visual rating on 0 to 100 scale (0 no effect, 100 complete control), 13 to 15 days
# Outline: as §2
# [21] = Postemergence, 125 g ai/ha, 0 to 100 scale, 0 no effect, 100 complete control
# [22] = Postemergence, 500 g ai/ha, 0 to 100 scale (0 no effect, 100 complete control)
# [23] = preemergence, 500 g ai/ha, visual injury after approx. 10 days, 0 to 100 scale (0 no effect, 100 complete control)
# [24] = Postemergence, 500 g ai/ha, visual rating after approx. 10 days, 0 to 100 scale (0 no effect, 100 complete control)
# [25] = postemergence, 125 g ai/ha, about 10 days, visual rating on 0 to 100 scale (0 no effect, 100 complete control)
# [26] = preemergence, 125 g ai/ha, visual injury, 0 to 100 scale, approx. 10 days
# [27] = 125 g ai/ha, visual injury, 0 to 100 scale, approx. 10 days
# [28] = 500 g ai/ha, visual injury after approx. 10 days, 0 to 100 scale (0 no effect, 100 complete control)
# [29] = Preemergence, 500 g ai/ha, 0 to 100 scale, 0 no effect, 100 complete control
compound,measurement,setting,value
CCc1cc(C(=O)NCC(F)(F)F)nn1Cc1cc(C(F)(F)C(F)(F)F)nn1C [Compound 227],Pigweed plant response rating,[1]; [21],100
same,Pigweed plant response rating,[1]; [22],100
same,Velvetleaf plant response rating (0 to 100 scale),"[2]; preemergence, 125 g ai/ha",30
same,Morningglory plant response rating (0 to 100 scale),"[3]; preemergence, 125 g ai/ha",10
same,Corn plant response rating (0 to 100 scale),"[4]; preemergence, 125 g ai/ha",0
same,Corn plant response rating,[4]; [23],50
same,"Barnyardgrass plant response rating (0 to 100 scale, 0 is no effect, 100 is complete control)","[5]; preemergence, 125 g ai/ha, visual injury approx. 10 days after treatment",40
same,Barnyardgrass plant response rating,[5]; [23],100
same,Pigweed plant response rating (0 to 100 scale),"[6]; preemergence, 125 g ai/ha",90
same,"Foxtail, Giant plant response rating",[7]; [21],70
same,"Foxtail, Giant plant response rating",[7]; [22],90
same,Wheat plant response rating (0 to 100 scale),[8]; 125 g ai/ha,10
same,"Crabgrass, Large plant response rating",[9]; [21],60
same,"Crabgrass, Large plant response rating",[9]; [22],90
same,"Foxtail, Giant plant response rating (0 to 100 scale)","[10]; preemergence, 125 g ai/ha",70
same,"Foxtail, Giant plant response rating",[10]; [23],100
same,Wheat plant response rating,[11]; [21],20
same,Wheat plant response rating,[11]; [22],70
same,Barnyardgrass plant response rating,[12]; [21],40
same,Barnyardgrass plant response rating,[12]; [22],80
same,"Plant response rating, Sedge, Umbrella",[13],95
same,Corn plant response rating,[14]; [21],30
same,Corn plant response rating,[14]; [22],70
same,Velvetleaf plant response rating,[15]; [21],40
same,Velvetleaf plant response rating,[15]; [22],100
same,"Crabgrass, Large plant response rating (0 to 100 scale)","[16]; preemergence, 125 g ai/ha",100
same,"Crabgrass, Large plant response rating",[16]; [23],100
same,"Plant response rating, Rice",[17],0
same,"Plant response rating, Ducksalad",[18],100
same,Morningglory plant response rating,[19]; [21],70
same,Morningglory plant response rating,[19]; [22],100
same,"Plant response rating, Barnyardgrass",[20],80
Cc1cc(C(=O)Nc2ccc(F)cc2)nn1Oc1ccnc(C(F)(F)F)c1 [Compound 90],Pigweed plant response rating,[1]; [24],0
same,Pigweed plant response rating,[1]; [25],0
same,Velvetleaf plant response rating,[2]; [26],0
same,Velvetleaf plant response rating,[2]; [23],0
same,Morningglory plant response rating,[3]; [26],0
same,Morningglory plant response rating,[3]; [23],10
same,Corn plant response rating,[4]; [26],0
same,Corn plant response rating,[4]; [23],40
same,Barnyardgrass plant response rating,[5]; [26],0
same,Barnyardgrass plant response rating,[5]; [23],0
same,Pigweed plant response rating,[6]; [26],0
same,Pigweed plant response rating,[6]; [23],10
same,"Foxtail, Giant plant response rating",[7]; [24],0
same,"Foxtail, Giant plant response rating",[7]; [25],0
same,Wheat plant response rating,[8]; [27],0
same,Wheat plant response rating,[8]; [28],10
same,"Crabgrass, Large plant response rating",[9]; [24],0
same,"Crabgrass, Large plant response rating",[9]; [25],0
same,"Foxtail, Giant plant response rating",[10]; [26],0
same,"Foxtail, Giant plant response rating",[10]; [23],10
same,Wheat plant response rating,[11]; [24],0
same,Wheat plant response rating,[11]; [25],0
same,Barnyardgrass plant response rating,[12]; [21],0
same,Barnyardgrass plant response rating,[12]; [24],0
same,"Plant response rating, Sedge, Umbrella",[13],0
same,Corn plant response rating,[14]; [24],30
same,Corn plant response rating,[14]; [25],0
same,Velvetleaf plant response rating,[15]; [24],0
same,Velvetleaf plant response rating,[15]; [25],0
same,"Crabgrass, Large plant response rating",[16]; [26],0
same,"Crabgrass, Large plant response rating",[16]; [23],20
same,"Plant response rating, Rice",[17],0
same,"Plant response rating, Ducksalad",[18],0
same,Morningglory plant response rating,[19]; [24],10
same,Morningglory plant response rating,[19]; [25],0
same,"Plant response rating, Barnyardgrass",[20],0
O=C(NCC(F)(F)F)c1cc(Cl)n(Cc2cccc(C(F)(F)F)c2)n1 [Compound 170],Pigweed plant response rating,[1]; [22],80
same,Pigweed plant response rating,[1]; [25],60
same,Velvetleaf plant response rating (0 to 100 scale),"[2]; preemergence, 125 g ai/ha",0
same,Velvetleaf plant response rating,[2]; [23],0
same,Morningglory plant response rating (0 to 100 scale),"[3]; preemergence, 125 g ai/ha",0
same,Morningglory plant response rating,[3]; [23],0
same,Corn plant response rating (0 to 100 scale),"[4]; preemergence, 125 g ai/ha",0
same,Corn plant response rating,[4]; [23],0
same,Barnyardgrass plant response rating,[5]; [26],0
same,Barnyardgrass plant response rating,[5]; [23],0
same,Pigweed plant response rating (0 to 100 scale),"[6]; preemergence, 125 g ai/ha",0
same,Pigweed plant response rating,[6]; [23],60
same,"Foxtail, Giant plant response rating",[7]; [22],10
same,"Foxtail, Giant plant response rating",[7]; [25],0
same,Wheat plant response rating (0 to 100 scale),[8]; 125 g ai/ha,0
same,Wheat plant response rating,[8]; [28],0
same,"Crabgrass, Large plant response rating",[9]; [22],30
same,"Crabgrass, Large plant response rating",[9]; [25],20
same,"Foxtail, Giant plant response rating (0 to 100 scale)","[10]; preemergence, 125 g ai/ha",0
same,"Foxtail, Giant plant response rating",[10]; [23],50
same,Wheat plant response rating,[11]; [22],0
same,Wheat plant response rating,[11]; [25],0
same,Barnyardgrass plant response rating,[12]; [22],30
same,Barnyardgrass plant response rating,[12]; [25],10
same,"Plant response rating, Sedge, Umbrella",[13],0
same,Corn plant response rating,[14]; [22],10
same,Corn plant response rating,[14]; [25],0
same,Velvetleaf plant response rating,[15]; [22],40
same,Velvetleaf plant response rating,[15]; [25],0
same,"Crabgrass, Large plant response rating (0 to 100 scale)","[16]; preemergence, 125 g ai/ha",10
same,"Crabgrass, Large plant response rating",[16]; [23],70
same,"Plant response rating, Rice",[17],0
same,"Plant response rating, Ducksalad",[18],0
same,Morningglory plant response rating,[19]; [22],20
same,Morningglory plant response rating,[19]; [25],10
same,"Plant response rating, Barnyardgrass",[20],0
Cc1cc(C(=O)NC2CC2)nn1Oc1ccnc(C(F)(F)F)c1 [Compound 81],Pigweed plant response rating,[1]; [24],50
same,Pigweed plant response rating,[1]; [25],30
same,Velvetleaf plant response rating,[2]; [29],60
same,Velvetleaf plant response rating,[2]; [26],0
same,Morningglory plant response rating,[3]; [29],60
same,Morningglory plant response rating,[3]; [26],0
same,Corn plant response rating,[4]; [29],0
same,Corn plant response rating,[4]; [26],0
same,Barnyardgrass plant response rating,[5]; [29],70
same,Barnyardgrass plant response rating,[5]; [26],20
same,Pigweed plant response rating,[6]; [29],90
same,Pigweed plant response rating,[6]; [26],40
same,"Foxtail, Giant plant response rating",[7]; [24],30
same,"Foxtail, Giant plant response rating",[7]; [25],10
same,Wheat plant response rating,[8]; [27],0
same,Wheat plant response rating,[8]; [28],10
same,"Crabgrass, Large plant response rating",[9]; [24],40
same,"Crabgrass, Large plant response rating",[9]; [25],10
same,"Foxtail, Giant plant response rating",[10]; [29],100
same,"Foxtail, Giant plant response rating",[10]; [26],30
same,Wheat plant response rating,[11]; [24],0
same,Wheat plant response rating,[11]; [25],0
same,Barnyardgrass plant response rating,[12]; [21],0
same,Barnyardgrass plant response rating,[12]; [24],20
same,"Plant response rating, Sedge, Umbrella",[13],0
same,Corn plant response rating,[14]; [24],20
same,Corn plant response rating,[14]; [25],10
same,Velvetleaf plant response rating,[15]; [24],30
same,Velvetleaf plant response rating,[15]; [25],20
same,"Crabgrass, Large plant response rating",[16]; [29],100
same,"Crabgrass, Large plant response rating",[16]; [26],60
same,"Plant response rating, Rice",[17],0
same,"Plant response rating, Ducksalad",[18],0
same,Morningglory plant response rating,[19]; [24],50
same,Morningglory plant response rating,[19]; [25],30
same,"Plant response rating, Barnyardgrass",[20],0
